According to patent US10183940B2, “Aryl and heteroaryl-fused tetrahydro-1,4-oxazepine amides as somatostatin receptor subtype 4 (SSTR4) agonists” (Boehringer Ingelheim International GmbH, priority 2014, dated 2019):

The compounds below were run against human Somatostatin 4 receptor (SSTR4) (Homo sapiens (Human), UniProt P31391) (assay: cAMP assay with human Somatostatin 4 receptor). Conditions: hSSTR4 expressing H4 cells, inhibition of Forskolin-stimulated cAMP; read-out: SSTR4 agonism EC50.
Type: cell-based
Description: Method description for cAMP assay with human Somatostatin 4 receptor.
The activation of the SSTR4 receptor (Gi coupled) causes an inhibition of intracellular cAMP after stimulation with Forskolin, which can be quantifiable by use of a suitable assay Kit and an adequate plate reader. This technique is used to characterize pharmacological effects of the SSTR4 receptor agonists by use of hSSTR4 expressing H4 cells.
Compounds are dissolved and diluted in DMSO. The final test solution contains […]. The cAMP standard (Lance cAMP 384 Kit; PerkinElmer, Cat #AD0264) is prepared in assay buffer (HBSS with 0.1% BSA, 5 mM HEPES, […], pH 7.4) containing 1% DMSO and the cAMP standard curve is included at least on one plate. Cells are centrifuged and suspended in assay buffer (incl. 1:100 diluted Alexa antibody).
For the assay 5 μl of a cell suspension (approximately 5000 cells/well)—incl. Alexa antibody (diluted 1:100) are added into a 384 well MTP microtitre plate excepting one row or column (depending on the plate layout), which is reserved for the standard curve. Then 2 μl of compound sample is added as concentration response curve (e.g. 1e-5 M to 6e-10 M), usually in triplicates. Each assay contains incubations with vehicle controls instead of compound as controls for non-inhibited cAMP generation (100% CTL; ‘high values’) and incubations with 1 μM Somatosatin as controls for full inhibition and background (0% CTL; ‘low values’). After approximately 10-15 min incubation time 3 μl Forskolin (dissolved in DMSO, final conc. 15 μM) is added. Then the plates are shaken briefly and incubated for 60 min at room temperature. After 60 min 10 μl of the detection mix is added into all wells followed by an additional incubation period of 1 h. The plates are read in a suitable plate reader.
The analysis of the data is based on the “ratio” of the time-resolved fluorescence measurements of donor and acceptor fluorophore (Ex: 320 nm; Em1: 665 nm; Em2: 615 nm; ratio 665/615). From this ratio, cAMP concentrations are calculated from standard curve and the EC50 is estimated by least square curve fit program.

human Somatostatin 4 receptor (SSTR4), sequence (P31391 whole entry): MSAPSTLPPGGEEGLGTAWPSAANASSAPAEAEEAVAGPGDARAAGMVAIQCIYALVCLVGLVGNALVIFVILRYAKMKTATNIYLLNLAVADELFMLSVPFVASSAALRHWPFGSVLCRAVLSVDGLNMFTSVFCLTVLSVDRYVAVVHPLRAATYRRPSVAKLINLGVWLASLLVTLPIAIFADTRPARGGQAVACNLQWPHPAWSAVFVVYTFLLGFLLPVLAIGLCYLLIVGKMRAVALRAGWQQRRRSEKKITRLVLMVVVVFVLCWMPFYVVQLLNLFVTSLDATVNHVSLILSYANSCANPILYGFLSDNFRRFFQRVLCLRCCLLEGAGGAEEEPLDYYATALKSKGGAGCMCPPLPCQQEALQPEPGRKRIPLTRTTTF

Structure (SMILES) | EC50
Cc1nc(C(C)(C)NC(=O)c2cccc3c2OCCNC3)c2cccc(C)c2n1 [Example 65] | 21.4 nM
CC(C)(NC(=O)c1nccc2c1OCCNC2)c1noc2c(F)cccc12 [Example 35] | 350 nM
CC(C)(NC(=O)c1cccc2c1OCCNC2)c1cccc2cccnc12 [Example 10] | 42.1 nM
Cn1nc(C(C)(C)NC(=O)c2cncc3c2OCCNC3)c2ccccc21 [Example 21] | 35.5 nM
Cc1cc2cccnc2c(C(C)(C)NC(=O)c2cccc3c2OCCNC3)n1 [Example 1] | 58.1 nM
CC(C)(NC(=O)c1cccc2c1OCCNC2)c1nc2ccc(Cl)cc2[nH]1 [Example 3] | 45.1 nM
Cc1nc(C(C)(C)NC(=O)c2cccc3c2OCCNC3)c2cccc(F)c2n1 [Example 67] | 75 nM
O=C(NC1(c2nc3ccc(Cl)cc3[nH]2)CCOC1)c1cccc2c1OCCNC2 (stereo not drawn) [Example 5] | 750 nM
CC(C)(NC(=O)c1cccc2c1OCCNC2)c1ncnc2c(F)cccc12 [Example 66] | 30 nM
Cn1nc(C(C)(C)NC(=O)c2cccc3c2OCCNC3)c2cccc(C(F)(F)F)c21 [Example 25] | 6.8 nM
CC(C)(NC(=O)c1cccc2c1OCCNC2)c1noc2c(F)cccc12 [Example 34] | 18.2 nM
Cc1cc2ccccc2c(C(C)(C)NC(=O)c2cncc3c2OCCNC3)n1 [Example 31] | 37 nM
Cc1cccn2c([C@H](C)NC(=O)c3cccc4c3OCCNC4)ncc12 [Example 60] | 94.4 nM
O=C(NC1(c2nc3ccc(Cl)cc3[nH]2)CC1)c1cccc2c1OCCNC2 [Example 4] | 342 nM
Cc1cccn2c(C3(NC(=O)c4cccc5c4OCCNC5)CCC3)ncc12 [Example 54] | 15.2 nM
Cc1cc2ccccc2c(C(C)(C)NC(=O)c2ccnc3c2OCCNC3)n1 [Example 30] | 19 nM
CC(C)(NC(=O)c1cncc2c1OCCNC2)c1noc2c(F)cccc12 [Example 37] | 1600 nM
Cc1cccn2c(C3(NC(=O)c4nccc5c4OCCNC5)CC3)ncc12 [Example 73] | 39.3 nM

Structure (SMILES) | EC50
Cc1cccn2c(C(C)(C)NC(=O)c3nccc4c3OCCNC4)nc(C3CC3)c12 [Example 76] | 145 nM
Cc1cccn2c(C3(NC(=O)c4cccc5c4OCCNC5)CCOC3)ncc12 (stereo not drawn) [Example 57] | 354 nM
CC(C)(NC(=O)c1cccc2c1OCCNC2)c1nc(C(F)(F)F)c2c(F)cccn12 [Example 63] | 32.3 nM
CC(NC(=O)c1cccc2c1OCCNC2)c1nc2ccccc2[nH]1 (stereo not drawn) [Example 2] | 302 nM
CC(C)(NC(=O)c1cccc2c1OCCNC2)c1cccc2cnccc12 [Example 11] | 423 nM
COc1cccn2c(C(C)(C)NC(=O)c3nccc4c3OCCNC4)ncc12 [Example 74] | 106 nM
CC(C)(NC(=O)c1cccc2c1OCCNC2)c1cccc2ncccc12 [Example 12] | 98.4 nM
Cc1cccn2c(C(C)(CC(C)C)NC(=O)c3cccc4c3OCCNC4)ncc12 (stereo not drawn) [Example 56] | 1980 nM
Cc1cccn2c(C(C)(C)NC(=O)c3nccc4c3OCCNC4)ccc12 [Example 77] | 22.6 nM
Cc1cccnc1OCC(C)(C)NC(=O)c1cccc2c1OCCNC2 [Example 15] | 28.1 nM
CC(C)(NC(=O)c1cccc2c1OCCNC2)c1ccc(F)cc1 [Example 16] | 33 nM
CC(C)(NC(=O)c1cccc2c1OCCNC2)c1ncc2c(OC(F)(F)F)cccn12 [Example 59] | 30.5 nM
Cc1cc(F)cn2c(C(C)(C)NC(=O)c3cccc4c3OCCNC4)ncc12 [Example 52] | 8.7 nM
CC(C)(COc1cnccc1C(F)(F)F)NC(=O)c1cccc2c1OCCNC2 [Example 14] | 132 nM
Cc1cccn2c(C3(NC(=O)c4cccc5c4OCCNC5)CCOCC3)ncc12 [Example 58] | 2480 nM
Cc1cccn2c(C(C)(C)NC(=O)c3cccc4c3OCCNC4)nnc12 [Example 68] | 37.9 nM
Cc1nc2ccccn2c1C(C)(C)NC(=O)c1cccc2c1OCCNC2 [Example 69] | 17.6 nM
CC(C)(NC(=O)c1ccnc2c1OCCNC2)c1noc2c(F)cccc12 [Example 36] | 380 nM
